Where two headings read alike, the source gives them in different places.
How the values were obtained:
SARS-CoV2 S; RBD = SARS-CoV2 S; RBD (Severe acute respiratory syndrome coronavirus 2, UniProt P0DTC2); conditions: epitope S; cited from earlier work
[1] = mouse, in vivo
[2] = Serum hG-CSF protein by ELISA after DOTAP liposomes, hG-CSF plasmid DNA and immuno-modulating agents; format: in vivo, CD-1 mice
[3] = Serum ALT/AST levels (toxicity) after liposome and DNA injection
SARS-CoV2 [4] = conditions: Protein + Epitope: S; literature source; cited from earlier work
SARS-CoV1 [5] = conditions: cited from earlier work
SARS-CoV2 [6] = conditions: source Seth Zost et al., 2020; cited from earlier work
SARS-CoV2 [7] = conditions: SARS-CoV2 listed as bound; cited from earlier work
SARS-CoV2 [8] = conditions: SARS-CoV2 listed as neutralised; cited from earlier work
SARS-CoV1 [9] = conditions: cited from earlier work; remark: listed apart in the source
[10] = test system: coronavirus named in the cell (SARS-CoV2, SARS-CoV1), S protein; conditions: cited from earlier work
[11] = test system: coronavirus named in the cell (SARS-CoV2, SARS-CoV1); conditions: cited from earlier work
mouse IGF-1 = assay: Serum levels of mouse IGF-1 by ELISA (hGH bioactivity); format: in vivo; conditions: CD-1 mice, day 127 after injection (Example 10)
[12] = Critical toxicity markers after dexamethasone pretreatment and IV DNA vector; conditions: pre-dosed IP 1 to 40 mg/kg
[13] = IP 2 hours prior to lipid and DNA injection (Example 20 Part 4)
[14] = agent in liposomes pre-injected IP prior to cationic liposomes (Example 16 Part 3)
[15] = agent incorporated into cationic liposomes (900 nmol DOTAP SUV), 70 ug hG-CSF DNA, day 1

C102
Binds to (SARS-CoV2 S; RBD): SARS-CoV2

C121
duration of fully neutralizing serum levels of each SARS-CoV2-specific mAb [1]: at least 134 days | Binds to (SARS-CoV2 S; RBD): SARS-CoV2

N-Acetyl-De-O-Sulfated Heparin [NSH]
gene expression (serum hG-CSF) [2, 13]: further increase gene expression | toxicity (serum ALT/AST) ([3]; IP 0.25 or 1 mg per mouse, 2 hours pre or 2 hours post lipid and DNA injection): reduce toxicity | toxicity (serum ALT/AST) [3, 13]: further reducing its toxicity

C003
Binds to (SARS-CoV2 [4]): SARS-CoV2 | Not Neutralising Vs (SARS-CoV1 [5]): SARS-CoV1

C013
Binds to (SARS-CoV2 [4]): SARS-CoV2 | Not Neutralising Vs (SARS-CoV1 [5]): SARS-CoV1

BD23
Binds to (SARS-CoV2 [4]): SARS-CoV2

C006
Binds to (SARS-CoV2 [4]): SARS-CoV2 | Not Neutralising Vs (SARS-CoV1 [5]): SARS-CoV1

CoV2-2196
Binds to (SARS-CoV2 [6]): SARS-CoV2

CB6
Binds to (SARS-CoV2 [7]): SARS-CoV2 | Neutralising Vs (SARS-CoV2 [8]): SARS-CoV2

B38
Binds to (SARS-CoV2 [4]): SARS-CoV2

C029
Not Neutralising Vs (SARS-CoV1 [9]): SARS-CoV1, | Binds to (SARS-CoV2 S; RBD): SARS-CoV2

C107
Not Neutralising Vs (SARS-CoV1 [9]): SARS-CoV1, | Binds to (SARS-CoV2 S; RBD): SARS-CoV2

C018
Not Neutralising Vs (SARS-CoV1 [9]): SARS-CoV1, | Binds to (SARS-CoV2 S; RBD): SARS-CoV2

4A8
Binds to [10]: SARS-CoV2 | Neutralising Vs [11]: SARS-CoV2

C119
Binds to (SARS-CoV2 S; RBD): SARS-CoV2

hGH
bioactivity of cDNA-encoded hGH protein (increase of endogenous mouse IGF-1) (mouse IGF-1): fully bioactive

C002
Binds to (SARS-CoV2 [4]): SARS-CoV2 | Not Neutralising Vs (SARS-CoV1 [5]): SARS-CoV1

C021
Not Neutralising Vs (SARS-CoV1 [9]): SARS-CoV1, | Binds to (SARS-CoV2 S; RBD): SARS-CoV2

C016
Binds to (SARS-CoV2 [4]): SARS-CoV2 | Not Neutralising Vs (SARS-CoV1 [5]): SARS-CoV1,

dexamethasone 21-palmitate [dexamethasone palmitate]
peak levels of gene expression (serum hG-CSF) ([2]; 5 mole percent in DOTAP SUV, otherwise ineffective hG-CSF-DNA dose (Example 16 Part 6)): further increase peak levels of gene expression | gene expression (serum hG-CSF) [2, 14]: further increase gene expression | gene expression (serum hG-CSF) [2, 15]: further increase gene expression | toxicity (ALT levels) [3, 14]: further decrease toxicity | toxicity (ALT levels) [3, 15]: further decrease toxicity

C[C@@H]1C[C@H]2[C@@H]3CCC4=CC(=O)C=C[C@]4(C)[C@@]3(F)[C@@H](O)C[C@]2(C)[C@@]1(O)C(=O)CO [dexamethasone]
critical toxicity markers [12]: at or closely approximating background control levels

C112
Binds to (SARS-CoV2 S; RBD): SARS-CoV2

C005
Binds to (SARS-CoV2 [4]): SARS-CoV2 | Not Neutralising Vs (SARS-CoV1 [5]): SARS-CoV1

CoV2-2130
Binds to (SARS-CoV2 [6]): SARS-CoV2
